Assay results: the Deep4Chem optical property database

Test: solvent given as SMILES

SMILES: O=[N+]([O-])c1ccc2c(c1)-c1c3c(c4c([n+]1[B-](F)(F)O2)CCc1ccccc1-4)CCc1ccccc1-3
- absorption maximum (in ClCCl): 343 nm

SMILES: CCN1\C(=C/C=C/C=C/C2=[N+](CC)c3ccc4ccccc4c3C2(C)C)C(C)(C)c2c1ccc1ccccc21
- absorption maximum (in C1CCOC1): 684 nm
- absorption maximum (in CC#N): 677 nm
- absorption maximum (in CC(C)=O): 680 nm
- absorption maximum (in CCO): 682 nm
- absorption maximum (in CN(C)C=O): 683 nm
- absorption maximum (in CO): 678 nm
- absorption maximum (in CS(C)=O): 686 nm
- absorption maximum (in ClCCl): 693 nm

SMILES: CCC1(CC)c2cc(Br)ccc2-c2c1c1c(c3c2C(CC)(CC)c2cc(-c4cccs4)ccc2-3)C(CC)(CC)c2cc(Br)ccc2-1
- absorption maximum (in C1CCOC1): 336 nm

SMILES: Cc1ccc(N(CC(=O)[O-])CC(=O)[O-])cc1OCCOc1cc(-c2cc3ccc(C(=O)[O-])cc3[nH]2)ccc1N(CC(=O)[O-])CC(=O)[O-]
- absorption maximum (in O): 349 nm

SMILES: Cc1nc2c(ccc3ccc(N(C)C)cc32)oc1=O
- absorption maximum (in c1ccccc1): 426 nm

SMILES: O=P1(c2ccccc2)c2cccc3c4ccccc4c4ccc1n4c23 (configuration not stated)
- absorption maximum (in ClCCl): 378 nm

SMILES: COC(=O)C(Cc1ccc2oc(-c3ccc(N(c4ccccc4)c4ccccc4)cc3)nc2c1)NC(=O)OC(C)(C)C (configuration not stated)
- absorption maximum (in C1CCCCC1): 361.7 nm
- absorption maximum (in C1CCOC1): 362.85 nm
- absorption maximum (in C1COCCO1): 363.1 nm
- absorption maximum (in CC1CCCCC1): 361.35 nm
- absorption maximum (in CC1COC(=O)O1): 361.45 nm
- absorption maximum (in CC#N): 360.5 nm
- absorption maximum (in CC(C)=O): 360.45 nm
- absorption maximum (in CC(C)O): 365.45 nm
- absorption maximum (in CC(O)CO): 368.35 nm
- absorption maximum (in CCCCCC): 359.8 nm
- absorption maximum (in CCCCCCCC): 361.55 nm
- absorption maximum (in CCCCCO): 367.75 nm
- absorption maximum (in CCCCO): 367.1 nm
- absorption maximum (in CCO): 366.3 nm
- absorption maximum (in CCOC(C)=O): 360.5 nm
- absorption maximum (in CN(C)C=O): 363 nm
- absorption maximum (in CO): 365.05 nm
- absorption maximum (in COCCOC): 362.55 nm
- absorption maximum (in CS(C)=O): 364 nm
- absorption maximum (in ClC(Cl)Cl): 369.25 nm
- absorption maximum (in ClCCl): 366.18 nm
- absorption maximum (in N#Cc1ccccc1): 368.3 nm
- absorption maximum (in NC=O): 367.45 nm
- absorption maximum (in O): 367 nm
- absorption maximum (in OCC(F)(F)F): 366.1 nm

SMILES: Cc1cc2ccccc2c2c1c1ccccc1n2-c1ccc(C#N)cc1
- absorption maximum (in ClCCl): 303 nm

SMILES: CN(C)c1ccc2c(c1)C(=O)NC2=O
- absorption maximum (in C1CCOC1): 377 nm
- absorption maximum (in C1COCCO1): 378 nm
- absorption maximum (in CC#N): 388 nm
- absorption maximum (in CC(C)(C)O): 387 nm
- absorption maximum (in CC(C)=O): 382 nm
- absorption maximum (in CC(C)O): 389 nm
- absorption maximum (in CCOCC): 371 nm
- absorption maximum (in CO): 396 nm
- absorption maximum (in O): 408 nm

SMILES: Cc1ccc(-c2nc(-c3ccccc3O)[nH]c2-c2ccc(C)cc2)cc1
- absorption maximum (in CO): 320 nm

SMILES: Cc1cc(C)c(B2c3cc(C(C)(C)C)ccc3-c3cccc4cc(C(C)(C)C)cc2c34)c(C)c1
- absorption maximum (in C1CCCCC1): 409 nm

SMILES: CCN(CC)c1ccc2c(c1)oc(=O)c1c(=O)oc3cc(Br)ccc3c12
- absorption maximum (in CS(C)=O): 469 nm
- absorption maximum (in ClCCl): 466 nm

SMILES: CN(C)c1ccc(C(=Cc2ccc(/C=C/c3ccc(C#N)cc3)cc2)c2ccc(N(C)C)cc2)cc1
- absorption maximum (in C1CCOC1): 415 nm

SMILES: O=C1NC(c2ccccc2)=N/C1=C\c1ccccc1
- absorption maximum (in C1COCCO1): 384 nm

SMILES: CC1=CC(C)=[N+]2C1=C(c1ccc(C(=O)OC3C[C@@H]4CC[C@]3(C)C4(C)C)cc1)c1c(C)cc(C)n1[B-]2(F)F (some centres not stated)
- absorption maximum (in Cc1ccccc1): 506 nm

SMILES: CCCCCCn1c(=O)c2c3oc4ccccc4oc3c3c(=O)n(CCCCCC)c(=O)c3c2c1=O
- absorption maximum (in ClCCl): 395 nm

SMILES: F[B-]1(F)n2cccc2C(c2ccccc2)=C2C=CC(c3cccc(OC4=[N+]5C(=C(c6ccccc6)c6cc(Br)c(Br)n6[B-]5(F)F)C=C4Br)c3)=[N+]21
- absorption maximum (in ClC(Cl)Cl): 556 nm

SMILES: C[P+]1(c2ccccc2)c2ccccc2-c2sc3ccccc3c21 (configuration not stated)
- absorption maximum (in CC#N): 335 nm
- absorption maximum (in CCO): 336 nm
- absorption maximum (in ClCCl): 340 nm

SMILES: CC(C)(C)c1ccc2c(c1)c1cc(C(C)(C)C)ccc1n2-c1ccc(N(c2ccc(-c3ccc(-c4ccc(N(c5ccc(-n6c7ccc(C(C)(C)C)cc7c7cc(C(C)(C)C)ccc76)cc5)c5ccc(-n6c7ccc(C(C)(C)C)cc7c7cc(C(C)(C)C)ccc76)cc5)cc4)s3)cc2)c2ccc(-n3c4ccc(C(C)(C)C)cc4c4cc(C(C)(C)C)ccc43)cc2)cc1
- absorption maximum (in ClCCl): 396 nm

SMILES: CCCCCCCCCCCCN1C(=O)c2c(c3ccc4cc(-c5ccc(OC)cc5)c(OC)cc4c3c3c2ccc2cc(-c4ccc(OC)cc4)c(OC)cc23)C1=O
- absorption maximum (in ClCCl): 443 nm
